Laboratory results reported in US12522606B2, “Modified pyrrolo- and pyrazolo-pyrimidines for prostate cancer therapy” (University of Washington, priority 2020, dated 2026).

Experiments:
[1] = background statement; cited from earlier work
[2] = background statement; cited from earlier work; remark: listed apart in the source
LNCaP95 = test: MTT proliferation assay, LNCaP95; format: cell-based; details: Homo sapiens, LNCaP-95; for EC50: Table 1, LNCaP95 (AR+ PCa), unit inferred; for inhibition at 10 µM: read-out: MTT % inhib @ 10 μM LNCaP95
Protocol: Anti-tumor activity was determined by screening a series of compounds against the castrate-resistant, androgen-receptor-positive, prostate cancer cell line LNCaP95. […] Inhibition of proliferation was determined based on the level of LNCaP95 cell growth suppression using an MTT assay (NAD(P)H-dependent cellular oxidoreductase enzymatic activities)) read at 72 and 96 hours after addition of the compounds. […] Each cell line was be tested in quadruplicate.

PK Oral (MMV) = format: in vivo; details: for Cmax / Tmax: in vivo
in vitro [3] = details: human, CRL-8155 lymphoblastoid cell line
Description: (§1) HepG2 is hepatoma liver tumor cell line. CRL8155 is lymphoblastoid cell line.

in vitro [4] = details: human, HepG2 hepatoma cell line
Description: as §1

PC3 = test: MTT proliferation assay, PC3; details: Homo sapiens; for inhibition at 10 µM: PC-3, read-out: MTT % inhib @ 10 μM PC3; for EC50: read-out: EC50 PC3
[5] = Plasma protein binding, mouse; format: in vitro ADME

Structure (SMILES)	EC50 (LNCaP95) [µM]	EC50 (PC3) [µM]	fraction unbound [5]	inhibition at 10 µM (LNCaP95) [%]	CC50 (in vitro [3]) [µM]	CC50 (in vitro [4]) [µM]	inhibition at 10 µM (PC3) [%]	further results
CC(C)(C)n1nc(-c2cccc3ccccc23)c2c(N)ncnc21 [Example 1NA-PP1]	–	–	–	–	–	–	–	solubility [1]: low solubility; metabolism [2]: quickly metabolized
CC(C)(C)n1nc(Cc2cccc3ccccc23)c2c(N)ncnc21 [Example 1NM-PP1]	–	–	–	–	–	–	–	solubility [1]: low solubility; metabolism [2]: quickly metabolized
COCCOc1ncnc2c1c(-c1ccc3cc(OC4CC4)ccc3c1)cn2CC(C)(C)O [Example 2, 1-(5-(6-cyclopropoxynaphthalen-2-yl)-4-(2-methoxyethoxy)-7H-pyrrolo[2,3-d]pyrimidin-7-yl)-2-methylpropan-2-ol]	6	> 20	–	32	> 40	> 40	12.8	AUC (PK Oral (MMV); dose 30.8 mg/kg): 822 µmol·min/L; Cmax (PK Oral (MMV); dose 30.8 mg/kg): 34.4 µM; Tmax (PK Oral (MMV); dose 30.8 mg/kg): 1 h
CCOc1ccc2cc(-c3cn(CC(C)(C)O)c4ncnc(OCCOC)c34)ccc2c1 [Example 3, 1-(5-(6-ethoxynaphthalen-2-yl)-4-(2-methoxyethoxy)-7H-pyrrolo[2,3-d]pyrimidin-7-yl)-2-methylpropan-2-ol]	7	> 20	–	36.5	–	–	2.9	AUC (PK Oral (MMV); dose 25 mg/kg): 2559 µmol·min/L; Cmax (PK Oral (MMV); dose 25 mg/kg): 5.1 µM; Tmax (PK Oral (MMV); dose 25 mg/kg): 0.667 h
COCCOc1ncnc2c1c(-c1ccc(-c3ccccc3)cc1)cn2CC(C)(C)O [Example 4, 1-(5-(biphenyl-4-yl)-4-(2-methoxyethoxy)-7H-pyrrolo[2,3-d]pyrimidin-7-yl)-2-methylpropan-2-ol]	5	> 20	–	36.3	> 80	–	13	–
CCOc1ccc2cc(-c3cn(CC(C)(C)O)c4ncnc(OCC)c34)ccc2c1 [Example 5, 1-(4-ethoxy-5-(6-ethoxynaphthalen-2-yl)-7H-pyrrolo[2,3-d]pyrimidin-7-yl)-2-methylpropan-2-ol]	5	> 20	–	50.9	> 80	> 80	-3.2	–
CCOc1ncnc2c1c(-c1ccc3cc(OC4CC4)ccc3c1)cn2CC(C)(C)O [Example 6, 1-(5-(6-cyclopropoxynaphthalen-2-yl)-4-ethoxy-7H-pyrrolo[2,3-d]pyrimidin-7-yl)-2-methylpropan-2-ol]	10	> 20	–	20.3	> 40	> 40	10.1	AUC (PK Oral (MMV); dose 24.6 mg/kg): 400 µmol·min/L; Cmax (PK Oral (MMV); dose 24.6 mg/kg): 17.6 µM; Tmax (PK Oral (MMV); dose 24.6 mg/kg): 1 h
CCOc1ccc2cc(-c3cn(CC(C)(C)O)c4ncnc(NC)c34)ccc2c1 [Example 11, 1-(5-(6-ethoxynaphthalen-2-yl)-4-(methylamino)-7H-pyrrolo[2,3-d]pyrimidin-7-yl)-2-methylpropan-2-ol]	3	> 20	0.0019	55.6	> 80	> 80	1.6	–
CNc1ncnc2c1c(-c1ccc(-c3ccccc3)cc1)nn2CC(C)(C)O [Example 12, 1-(3-(biphenyl-4-yl)-4-(methylamino)-1H-pyrazolo[3,4-d]pyrimidin-1-yl)-2-methylpropan-2-ol]	12	> 20	–	36.7	> 80	> 80	8.4	–

More lines, main results first:

EC50 (LNCaP95) [µM]	EC50 (PC3) [µM]	fraction unbound [5]	Structure (SMILES)	inhibition at 10 µM (LNCaP95) [%]	CC50 (in vitro [3]) [µM]	CC50 (in vitro [4]) [µM]	inhibition at 10 µM (PC3) [%]	further results
12	> 20	–	CNc1ncnc2c1c(-c1ccc(-c3ccccc3)cc1)cn2CC(C)(C)O [Example 13, 1-(5-(biphenyl-4-yl)-4-(methylamino)-7H-pyrrolo[2,3-d]pyrimidin-7-yl)-2-methylpropan-2-ol]	40.9	> 80	> 80	-4.3	–
12	> 20	0.0079	CCOc1ccc2cc(-c3nn(CC(C)(C)O)c4ncnc(NC)c34)ccc2c1 [Example 14, 1-(3-(6-ethoxynaphthalen-2-yl)-4-(methylamino)-1H-pyrazolo[3,4-d]pyrimidin-1-yl)-2-methylpropan-2-ol]	42.7	> 80	> 80	-3.5	–
8	> 20	0.0017	CNc1ncnc2c1c(-c1ccc3cc(OC4CC4)ccc3c1)cn2CC(C)(C)O [Example 15, 1-(5-(6-cyclopropoxynaphthalen-2-yl)-4-(methylamino)-7H-pyrrolo[2,3-d]pyrimidin-7-yl)-2-methylpropan-2-ol]	53.2	> 80	> 80	2.8	–
3	> 20	0.0077	CCOc1ccc2cc(-c3cn(CC(C)(C)OC)c4ncnc(NC)c34)ccc2c1 [Example 18, 5-(6-ethoxynaphthalen-2-yl)-7-(2-methoxy-2-methylpropyl)-N-methyl-7H-pyrrolo[2,3-d]pyrimidin-4-amine]	44.9	> 80	> 80	21	–
10	> 20	–	CNc1ncnc2c1c(-c1cccc(Cl)c1)cn2CC(C)(C)OC [Example 22, 5-(3-chlorophenyl)-7-(2-methoxy-2-methylpropyl)-N-methyl-7H-pyrrolo[2,3-d]pyrimidin-4-amine]	40.1	> 80	> 80	4.3	–
4	> 20	–	CC(C)(O)Cn1cc(-c2ccc3cc(OC4CC4)ccc3c2)c2c(NCCOCCOCCOCCN)ncnc21 [Example 28, 1-(4-(2-(2-(2-(2-aminoethoxy)ethoxy)ethoxy)ethylamino)-5-(6-cyclopropoxynaphthalen-2-yl)-7H-pyrrolo[2,3-d]pyrimidin-7-yl)-2-methylpropan-2-ol]	43	15.4	30.7	-8.3	–
10	> 20	–	CCOCCNc1ncnc2c1c(-c1ccc3cc(OCC)ccc3c1)cn2CC(C)(C)O [Example 31, 1-(4-(2-ethoxyethylamino)-5-(6-ethoxynaphthalen-2-yl)-7H-pyrrolo[2,3-d]pyrimidin-7-yl)-2-methylpropan-2-ol]	34.9	–	–	14.9	AUC (PK Oral (MMV); dose 25 mg/kg): 1724 µmol·min/L; Cmax (PK Oral (MMV); dose 25 mg/kg): 7.8 µM; Tmax (PK Oral (MMV); dose 25 mg/kg): 1 h
3	> 20	0.0069	CNc1ncnc2c1c(-c1ccc3cc(OC(C)C)ccc3c1)cn2CC(C)(C)OC [Example 32, 5-(6-isopropoxynaphthalen-2-yl)-7-(2-methoxy-2-methylpropyl)-N-methyl-7H-pyrrolo[2,3-d]pyrimidin-4-amine]	5.1	–	–	14.6	–
5	> 20	0.0064	CNc1ncnc2c1c(-c1ccc(-c3ccc(Br)cc3)cc1)cn2CC(C)(C)OC [Example 33, 5-(4′-bromobiphenyl-4-yl)-7-(2-methoxy-2-methylpropyl)-N-methyl-7H-pyrrolo[2,3-d]pyrimidin-4-amine]	30.7	–	–	11.4	–
